Experimental data as given in the supplement of paper PMC13380429.

How the values were obtained:
Details in all cases: 72 h
U2OS [1] = test: cell viability relative to DMSO; higher = less toxic
Calu-3 [2] = test: as above
Caco-2 [3] = test: as above
HepG2 [4] = test: as above
Vero E6 [5] = test: as above
U2OS [6] = test: drug sensitivity score (DSS) for viability; higher = more toxic; extreme values may be limits of the assay
Calu-3 [7] = test: as above
Caco-2 [8] = test: as above
HepG2 [9] = test: as above
Vero E6 [10] = test: as above
U2OS [11] = test: relative viability EC50 (midpoint between 100% and the lowest measured viability); higher = less toxic
Calu-3 [12] = test: as above
Caco-2 [13] = test: as above
HepG2 [14] = test: as above
Vero E6 [15] = test: as above

Row | SMILES | cell viability (U2OS [1]; 1 nM) [%] | cell viability (U2OS [1]; 10 nM) [%] | cell viability (U2OS [1]; 100 nM) [%] | cell viability (U2OS [1]; 1000 nM) [%] | cell viability (U2OS [1]; 10000 nM) [%] | cell viability (Calu-3 [2]; 1 nM) [%] | cell viability (Calu-3 [2]; 10 nM) [%] | cell viability (Calu-3 [2]; 100 nM) [%] | cell viability (Calu-3 [2]; 1000 nM) [%] | cell viability (Calu-3 [2]; 10000 nM) [%] | cell viability (Caco-2 [3]; 1 nM) [%] | cell viability (Caco-2 [3]; 10 nM) [%] | cell viability (Caco-2 [3]; 100 nM) [%] | cell viability (Caco-2 [3]; 1000 nM) [%] | cell viability (Caco-2 [3]; 10000 nM) [%] | cell viability (HepG2 [4]; 1 nM) [%] | cell viability (HepG2 [4]; 10 nM) [%] | cell viability (HepG2 [4]; 100 nM) [%] | cell viability (HepG2 [4]; 1000 nM) [%] | cell viability (HepG2 [4]; 10000 nM) [%] | cell viability (Vero E6 [5]; 1 nM) [%] | cell viability (Vero E6 [5]; 10 nM) [%] | cell viability (Vero E6 [5]; 100 nM) [%] | cell viability (Vero E6 [5]; 1000 nM) [%] | cell viability (Vero E6 [5]; 10000 nM) [%] | drug sensitivity score (U2OS [6]) | drug sensitivity score (Calu-3 [7]) | drug sensitivity score (Caco-2 [8]) | drug sensitivity score (HepG2 [9]) | drug sensitivity score (Vero E6 [10]) | relative viability EC50 (U2OS [11]) [µM] | relative viability EC50 (Calu-3 [12]) [µM] | relative viability EC50 (Caco-2 [13]) [µM] | relative viability EC50 (HepG2 [14]) [µM] | relative viability EC50 (Vero E6 [15]) [µM]
1 | CCOC(=O)CCC(=O)O[C@H]1[C@H](O[C@@H]2[C@@H](C)[C@H](O[C@H]3C[C@@](C)(OC)[C@@H](O)[C@H](C)O3)[C@@H](C)C(=O)O[C@H](CC)[C@@](C)(O)[C@H](O)[C@@H](C)C(=O)[C@H](C)C[C@@]2(C)O)O[C@H](C)C[C@@H]1N(C)C [erythromycin-ethylsuccinate] | 102 | 103 | 96.8 | 106 | 100 | 101 | 98.5 | 100 | 101 | 96.3 | 87.7 | 114 | 85.5 | 100 | 99.5 | 97.8 | 107 | 101 | 87.5 | 101 | 112 | 94.8 | 103 | 100 | 104 | 0 | 0 | 0 | 0 | 0 | > 10 | > 10 | > 10 | > 10 | > 10
2 | O=C(O[C@H]1C[C@H]2CC[C@@H](C1)[N+]21CCCC1)C(O)(c1ccccc1)c1ccccc1 [trospium] | 95.7 | 97.5 | 101 | 99.1 | 88.9 | 101 | 101 | 97.2 | 98.2 | 94.3 | 92.8 | 97.1 | 94.7 | 98.3 | 99.9 | 98.3 | 93.8 | 107 | 94.8 | 108 | 95.6 | 99.5 | 93 | 95.3 | 102 | 0 | 0 | 0 | 0 | 0 | > 10 | > 10 | > 10 | > 10 | > 10
3 | CC(C)[C@@H]1C(=O)N(S(C)(=O)=O)[C@@H]2CCN(C(=O)/C=C/CN3CCCCC3)[C@H]21 | 101 | 98.8 | 103 | 99.1 | 101 | 95.9 | 95.4 | 102 | 103 | 100 | 110 | 94.3 | 94.4 | 97.6 | 94.4 | 92.2 | 92.6 | 104 | 104 | 85.3 | 97.2 | 102 | 93.4 | 98.6 | 91.4 | 0 | 0 | 0 | 0.1 | 0 | > 10 | > 10 | > 10 | > 10 | > 10
4 | Cc1ccc(/C=C2/C(=O)C3(C)CCC2C3(C)C)cc1 (stereo not given) [3-(4-methylbenzylidene)camphor] | 101 | 104 | 96.4 | 99.1 | 100 | 102 | 97.2 | 88.1 | 92.1 | 93.8 | 92.9 | 100 | 90 | 95.8 | 95.9 | 94.1 | 96 | 94.3 | 88.9 | 103 | 101 | 101 | 96.9 | 99.9 | 96.3 | 0 | 1.2 | 0 | 0 | 0 | > 10 | > 10 | > 10 | > 10 | > 10
5 | Cn1cc([S+](C)[O-])c(=O)c2ccc(F)cc21 (stereo not given) [flosequinan] | 104 | 95.3 | 98.5 | 99 | 102 | 98.6 | 95.5 | 99.6 | 101 | 110 | 110 | 95.3 | 107 | 102 | 95.7 | 103 | 97.9 | 97 | 95.4 | 86.9 | 97.5 | 97.7 | 98.8 | 96.3 | 96.4 | 0 | 0 | 0 | 0.1 | 0 | > 10 | > 10 | > 10 | > 10 | > 10
6 | NC(=O)NC(=O)Cc1ccccc1 [phenacemide] | 104 | 102 | 102 | 98.8 | 97.6 | 102 | 97.2 | 101 | 87.7 | 104 | 102 | 94.4 | 95.6 | 100 | 94.8 | 96.4 | 103 | 95.5 | 107 | 102 | 97.5 | 101 | 96.8 | 99.7 | 96.9 | 0 | 0 | 0 | 0 | 0 | > 10 | > 10 | > 10 | > 10 | > 10
7 | CC[C@]12CCCN3CCc4c(n(c5ccccc45)C(=O)C1)[C@@H]32 [vinburnine] | 94.2 | 97.4 | 96.7 | 95.6 | 79.3 | 96.8 | 97.4 | 93.7 | 97.7 | 88.8 | 94.4 | 98.5 | 106 | 114 | 78.6 | 93.6 | 89.9 | 102 | 78.7 | 32.2 | 103 | 96.6 | 100 | 96.9 | 86.2 | 1.2 | 0 | 0.4 | 6.8 | 0.4 | > 10 | > 10 | > 10 | 1.37 | > 10
8 | O=S1(=O)CCN(CN2CCS(=O)(=O)NC2)CN1 [taurolidine] | 97.3 | 98.3 | 95.8 | 103 | 98.7 | 99.8 | 95.2 | 97.6 | 92.7 | 94.4 | 102 | 118 | 104 | 96.6 | 87.9 | 106 | 89.8 | 104 | 99.2 | 97.2 | 114 | 99.7 | 101 | 97.5 | 99.4 | 0 | 0 | 0.2 | 0 | 0 | > 10 | > 10 | > 10 | > 10 | > 10
9 | O=[N+]([O-])c1ccc2nc(COCc3nc4ccc([N+](=O)[O-])cc4[nH]3)[nH]c2c1 [VU591] | 93.2 | 93.7 | 99.4 | 99 | 97.3 | 94.6 | 95.3 | 101 | 100 | 88.7 | 95.8 | 92.2 | 103 | 84.9 | 92.8 | 94.1 | 95.6 | 96.3 | 96.2 | 102 | 93.4 | 99.1 | 92.2 | 94.6 | 114 | 0 | 0 | 0 | 0 | 0 | > 10 | > 10 | > 10 | > 10 | > 10
10 | N[C@@H](CCNCc1ccc(Cl)cc1)C(=O)N1CCCCC1 | 98.9 | 99 | 104 | 99.5 | 101 | 108 | 98.1 | 101 | 101 | 93.2 | 95.9 | 94.3 | 101 | 96.6 | 98.4 | 101 | 109 | 102 | 112 | 95.9 | 94.1 | 99.3 | 91 | 100 | 103 | 0 | 0 | 0 | 0 | 0 | > 10 | > 10 | > 10 | > 10 | > 10
11 | O=C(O)c1ccc(/C=C2\SC(=S)N(c3cccc(C(F)(F)F)c3)C2=O)cc1 [CFTRinh-172] | 95.2 | 101 | 94.2 | 104 | 99.4 | 102 | 99.9 | 97.8 | 106 | 116 | 104 | 100 | 86.7 | 99.4 | 99.9 | 111 | 104 | 96.2 | 94.7 | 106 | 96.3 | 96.3 | 96.4 | 93.9 | 107 | 0 | 0 | 0 | 0 | 0 | > 10 | > 10 | > 10 | > 10 | > 10
12 | CC1(C)S[C@@H]2[C@H](NC(=O)Cc3ccccc3)C(=O)N2[C@H]1C(=O)O [benzylpenicillin] | 96.6 | 101 | 101 | 104 | 104 | 88.5 | 104 | 98.8 | 93.4 | 94.2 | 80.1 | 101 | 97.6 | 95.3 | 106 | 95.9 | 94 | 116 | 99 | 98.2 | 99.5 | 97 | 99 | 98 | 107 | 0 | 0 | 0 | 0 | 0 | > 10 | > 10 | > 10 | > 10 | > 10
13 | O=C([O-])CN1CCN(CC(=O)[O-])CCN([C@H](CO)[C@H](O)CO)CCN(CC(=O)[O-])CC1.[Gd+3] (racemic) [gadobutrol] | 99.6 | 113 | 100 | 104 | 106 | 96.2 | 104 | 109 | 109 | 98.4 | 107 | 96.2 | 95.5 | 98.8 | 104 | 97 | 99.2 | 101 | 91.8 | 100 | 100 | 105 | 96.8 | 99.4 | 107 | 0 | 0 | 0 | 0 | 0 | > 10 | > 10 | > 10 | > 10 | > 10
